According to patent publication US9586969B2, “Microbiocidal heterobicyclic derivatives” (Syngenta Participations AG, priority 2014, dated 2017):
Read-outs that look alike come from different tables or passages of the source.

Columns and labels:
[1] = system: Botryotinia fuckeliana (Botrytis cinerea); experiment: Botryotinia fuckeliana (Botrytis cinerea) / liquid culture (Gray mould); assay type: cell-based; conditions: 72 h, 200 ppm, liquid culture, 24° C., inhibition of growth determined photometrically 3-4 days after application, vs untreated control, read-out: disease control
[2] = system: Fusarium culmorum; experiment: microbe, parasite or virus in culture; assay type: cell-based; conditions: 72 h, read-out: disease control
[3] = system: Gaeumannomyces graminis; experiment: Gaeumannomyces graminis / liquid culture (Take-all of cereals); assay type: cell-based; conditions: 96 h, read-out: disease control
[4] = system: Glomerella lagenarium (Colletotrichum lagenarium); experiment: Glomerella lagenarium (Colletotrichum lagenarium) / liquid culture (Anthracnose); assay type: cell-based; conditions: Colletotrichum orbiculare; 200 ppm; liquid culture, 24° C., inhibition of growth measured photometrically 3-4 days after application; vs untreated control; read-out: disease control
[5] = system: Monographella nivalis (Microdochium nivale); experiment: Monographella nivalis (Microdochium nivale) / liquid culture (Foot rot cereals); assay type: cell-based; conditions: 96 h, 200 ppm, liquid culture, 24° C., inhibition of growth determined photometrically 4-5 days after application, vs untreated control, read-out: disease control
[6] = system: Mycosphaerella graminicola (Septoria tritici); experiment: Mycosphaerella graminicola (Septoria tritici) / liquid culture (Septoria blotch); assay type: cell-based; conditions: Zymoseptoria tritici, 96 h, read-out: disease control
[7] = liquid culture, 24° C., inhibition of growth determined photometrically 4-5 days after application, vs untreated control

Structure (SMILES)	inhibition of growth at 200 ppm [1]	inhibition of growth at 200 ppm [2]	inhibition of growth at 200 ppm [3, 7]	inhibition of growth at 200 ppm [4]	inhibition of growth at 200 ppm [5]	inhibition of growth at 200 ppm [6, 7]	melting point	inhibition of growth at 200 ppm [3]	inhibition of growth at 200 ppm [6]
CC1(C)Cc2c(F)cccc2C(c2cnn3cccc3c2)=N1 [E 3]	≥ 80%	≥ 80%	≥ 80%	≥ 80%	≥ 80%	≥ 80%			
CC1(C)Cc2c(F)cccc2C(c2cnn3c(F)cc(Br)c3c2)=N1 [E 15]	≥ 80%		≥ 80%	≥ 80%	≥ 80%	≥ 80%			
Cc1cc(F)n2ncc(C3=NC(C)(C)Cc4c(F)cccc43)cc12 [E 18]	≥ 80%		≥ 80%	≥ 80%	≥ 80%	≥ 80%			
C#Cc1cccc2c1CC(C)(C)N=C2c1cnn2c(F)ccc2c1 [E 27]	≥ 80%	≥ 80%	≥ 80%	≥ 80%	≥ 80%	≥ 80%			
CC1(C)Cc2c(F)cccc2C(c2cnn3c(C#N)ccc3c2)=N1 [E 30, 3-(5-fluoro-3,3-dimethyl-4H-isoquinolin-1-yl)pyrrolo[1,2-b]pyridazine-7-carbonitrile]	≥ 80%	≥ 80%	≥ 80%	≥ 80%	≥ 80%	≥ 80%	118 to 136 °C		
CC1(C)N=C(c2cnn3c(C#N)cc(Br)c3c2)c2cccc(F)c2C1(F)F [E 64, 5-bromo-3-(4,4,5-trifluoro-3,3-dimethyl-1-isoquinolyl)pyrrolo[1,2-b]pyridazine-7-carbonitrile]							190 to 192 °C		
CC1(C)N=C(c2cnn3c(C#N)ccc3c2)c2cccc(F)c2C1(F)F [E 66, 3-(4,4,5-trifluoro-3,3-dimethyl-1-isoquinolyl)pyrrolo[1,2-b]pyridazine-7-carbonitrile]	≥ 80%	≥ 80%		≥ 80%	≥ 80%		214 to 216 °C		
CC1(C)N=C(c2cnn3c(Cl)ccc3c2)c2cccc(F)c2C1(C)C [E 76]		≥ 80%						≥ 80%	≥ 80%
